Measurements reported in patent publication US20240398793A1, “Methods of Treating Lymphedema” (Celltaxis, LLC, priority 2021, published 2024).

What was measured:
[1] = system: patients with cystic fibrosis; test: Phase 2 study in adult CF patients, 48 weeks, efficacy; format: in vivo, human; settings: for rate of pulmonary exacerbations: 48 weeks of treatment
LTA4H epoxide hydrolase = LTA4H epoxide hydrolase (Homo sapiens (Human), UniProt P09960); test: LTA4H epoxide hydrolase enzymatic activity (LTB4 production) in vitro; format: biochemical; settings: read-out: IC50, LTA4H-mediated production of LTB4
Description: The hydrolase-homogeneous time resolved fluorescence assay is a two-step assay that measures the hydrolysis of LTA4 to LTB4 by analyzing the amount of LTB4 produced. The first step involves the enzymatic conversion of LTA4 to LTB4 and the second step involves the quantification of the LTB4 formed with a homogeneous time resolved fluorescence assay. […] In the whole blood assay, the inhibitor compounds are tested for their ability to inhibit LTB4 release upon stimulation with calcium ionophore and the LTB4 levels in supernatants are measured by ELISA.

LTA4H aminopeptidase = LTA4H aminopeptidase (Homo sapiens (Human), UniProt P09960); settings: Bhatt et al. (2017); read-out: LTA4H aminopeptidase potency; cited from earlier work
[2] = Most common treatment emergent adverse events, safety population

Chain of LTA4H aminopeptidase (P09960 whole entry): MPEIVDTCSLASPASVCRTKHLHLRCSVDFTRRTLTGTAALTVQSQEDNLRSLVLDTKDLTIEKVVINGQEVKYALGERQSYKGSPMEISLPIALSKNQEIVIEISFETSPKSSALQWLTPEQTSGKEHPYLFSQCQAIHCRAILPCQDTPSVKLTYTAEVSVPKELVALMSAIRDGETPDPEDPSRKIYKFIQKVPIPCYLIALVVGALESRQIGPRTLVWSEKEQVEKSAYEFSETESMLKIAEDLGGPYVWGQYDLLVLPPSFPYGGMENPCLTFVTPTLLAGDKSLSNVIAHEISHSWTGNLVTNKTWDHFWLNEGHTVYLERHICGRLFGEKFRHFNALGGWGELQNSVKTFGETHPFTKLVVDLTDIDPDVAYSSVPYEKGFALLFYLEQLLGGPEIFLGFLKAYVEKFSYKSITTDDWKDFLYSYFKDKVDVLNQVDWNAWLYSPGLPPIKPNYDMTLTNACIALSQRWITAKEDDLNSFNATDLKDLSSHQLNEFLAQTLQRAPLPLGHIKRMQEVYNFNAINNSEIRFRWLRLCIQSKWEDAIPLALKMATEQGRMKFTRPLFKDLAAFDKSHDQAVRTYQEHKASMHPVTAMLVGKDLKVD
Chain of LTA4H epoxide hydrolase (P09960 whole entry): as above

SMILES: O=C(O)c1ccc(CN2C[C@@H]3C[C@H]2CN3Cc2ccc(Oc3ccc(-c4ncco4)cc3)cc2)cc1 [Acebilustat, 4-{[(1S,4S)-5-({4-[4-oxazol-2-yl-phenoxy]phenyl}methyl)-2,5-diazabicyclo[2.2.1]heptan-2-yl]methyl}benzoic acid]
- change from baseline in percent predicted FEV1 versus placebo ([1]; 48-week Phase 2 CF study, primary endpoint): no statistically significant difference
- time to first pulmonary exacerbation ([1]; CF patients, 48 weeks, secondary efficacy analysis): concordant numerical benefit
- risk of infection ([1]; adult CF patients, 48 weeks): no evidence of increased risk of infection
- rate of pulmonary exacerbations ([1]; adult CF patients): concordant numerical benefit
- rate of pulmonary exacerbations ([1]; adult CF patients, listed as acebilustat): showed promise in reducing the rate of pulmonary exacerbations
- IC50 (LTA4H epoxide hydrolase): 13 nM
- IC50 (LTA4H aminopeptidase): 27 nM
- Abdominal pain TEAE, % ([2]; 50 mg (N = 67)): (4.5%)
- Abdominal pain upper TEAE, % ([2]; 50 mg (N = 67)): (10.4%)
- Arthralgia TEAE, % ([2]; 50 mg (N = 67)): (4.5%)
- Back pain TEAE, % ([2]; 50 mg (N = 67)): (6.0%)
- Chest discomfort TEAE, % ([2]; 50 mg (N = 67)): (4.5%)
- Constipation TEAE, % ([2]; 50 mg (N = 67)): (6.0%)
- Cough TEAE, % ([2]; 50 mg (N = 67)): (40.3%)
- Diarrhoea TEAE, % ([2]; 50 mg (N = 67)): (13.4%)
- Distal intestinal obstruction syndrome TEAE, % ([2]; 50 mg (N = 67)): (6.0%)
- Dyspnoea TEAE, % ([2]; 50 mg (N = 67)): (9.0%)
- Epistaxis TEAE, % ([2]; 50 mg (N = 67)): (6.0%)
- Fatigue TEAE, % ([2]; 50 mg (N = 67)): (13.4%)
- Forced expiratory volume decreased TEAE, % ([2]; 50 mg (N = 67)): (6.0%)
- Gastroenteritis TEAE, % ([2]; 50 mg (N = 67)): (1.5%)
- Gastrointestinal disorders TEAE, % ([2]; 50 mg (N = 67)): (40.3%)
- General disorders and administration site conditions TEAE, % ([2]; 50 mg (N = 67)): (35.8%)
- Haemoptysis TEAE, % ([2]; 50 mg (N = 67)): (25.4%)
- Headache TEAE, % ([2]; 50 mg (N = 67)): (23.9%)
- Infections and infestations TEAE, % ([2]; 50 mg (N = 67)): (88.1%)
- Influenza TEAE, % ([2]; 50 mg (N = 67)): (4.5%)
- Investigations TEAE, % ([2]; 50 mg (N = 67)): (29.9%)
- Musculoskeletal and connective tissue disorders TEAE, % ([2]; 50 mg (N = 67)): (19.4%)
- Nasopharyngitis TEAE, % ([2]; 50 mg (N = 67)): (16.4%)
- Nausea TEAE, % ([2]; 50 mg (N = 67)): (7.5%)
- Nervous system disorders TEAE, % ([2]; 50 mg (N = 67)): (32.8%)
- No. of subjects with at least one TEAE, % ([2]; 50 mg (N = 67)): (100.0%)
- Oropharyngeal pain TEAE, % ([2]; 50 mg (N = 67)): (10.4%)
- Paranasal sinus hypersecretion TEAE, % ([2]; 50 mg (N = 67)): (7.5%)
- Pyrexia TEAE, % ([2]; 50 mg (N = 67)): (9.0%)
- Rales TEAE, % ([2]; 50 mg (N = 67)): (1.5%)
- Rash TEAE, % ([2]; 50 mg (N = 67)): (4.5%)
- Respiratory, thoracic and mediastinal disorders TEAE, % ([2]; 50 mg (N = 67)): (70.1%)
- Rhinitis TEAE, % ([2]; 50 mg (N = 67)): (6.0%)
- Rhinorrhoea TEAE, % ([2]; 50 mg (N = 67)): (9.0%)
- Sinusitis TEAE, % ([2]; 50 mg (N = 67)): (4.5%)
- Skin and subcutaneous tissue disorders TEAE, % ([2]; 50 mg (N = 67)): (11.9%)
- Sputum abnormal TEAE, % ([2]; 50 mg (N = 67)): (6.0%)
- Sputum increased TEAE, % ([2]; 50 mg (N = 67)): (19.4%)
- Abdominal pain TEAE, % ([2]; 100 mg (N = 66)): (6.1%)
- Abdominal pain upper TEAE, % ([2]; 100 mg (N = 66)): (4.5%)
- Alanine aminotransferase increased TEAE, % ([2]; 100 mg (N = 66)): (6.1%)
- Arthralgia TEAE, % ([2]; 100 mg (N = 66)): (7.6%)
- Back pain TEAE, % ([2]; 100 mg (N = 66)): (1.5%)
- Chest discomfort TEAE, % ([2]; 100 mg (N = 66)): (12.1%)
- Constipation TEAE, % ([2]; 100 mg (N = 66)): (1.5%)
- Cough TEAE, % ([2]; 100 mg (N = 66)): (43.9%)
- Diarrhoea TEAE, % ([2]; 100 mg (N = 66)): (7.6%)
- Distal intestinal obstruction syndrome TEAE, % ([2]; 100 mg (N = 66)): (3.0%)
- Dyspnoea TEAE, % ([2]; 100 mg (N = 66)): (7.6%)
- Epistaxis TEAE, % ([2]; 100 mg (N = 66)): (4.5%)
- Fatigue TEAE, % ([2]; 100 mg (N = 66)): (13.6%)
- Forced expiratory volume decreased TEAE, % ([2]; 100 mg (N = 66)): (7.6%)
- Gastroenteritis TEAE, % ([2]; 100 mg (N = 66)): (6.1%)
- Gastrointestinal disorders TEAE, % ([2]; 100 mg (N = 66)): (30.3%)
- General disorders and administration site conditions TEAE, % ([2]; 100 mg (N = 66)): (36.4%)
- Haemoptysis TEAE, % ([2]; 100 mg (N = 66)): (18.2%)
- Headache TEAE, % ([2]; 100 mg (N = 66)): (13.6%)
- Infections and infestations TEAE, % ([2]; 100 mg (N = 66)): (90.9%)
- Influenza TEAE, % ([2]; 100 mg (N = 66)): (7.6%)
- Investigations TEAE, % ([2]; 100 mg (N = 66)): (34.8%)
- Musculoskeletal and connective tissue disorders TEAE, % ([2]; 100 mg (N = 66)): (16.7%)
- Nasopharyngitis TEAE, % ([2]; 100 mg (N = 66)): (21.2%)
- Nausea TEAE, % ([2]; 100 mg (N = 66)): (12.1%)
- Nervous system disorders TEAE, % ([2]; 100 mg (N = 66)): (22.7%)
- No. of subjects with at least one TEAE, % ([2]; 100 mg (N = 66)): (100.0%)
- Oropharyngeal pain TEAE, % ([2]; 100 mg (N = 66)): (13.6%)
- Pyrexia TEAE, % ([2]; 100 mg (N = 66)): (12.1%)
- Rales TEAE, % ([2]; 100 mg (N = 66)): (6.1%)
- Rash TEAE, % ([2]; 100 mg (N = 66)): (9.1%)
- Respiratory, thoracic and mediastinal disorders TEAE, % ([2]; 100 mg (N = 66)): (75.8%)
- Rhinitis TEAE, % ([2]; 100 mg (N = 66)): (4.5%)
- Rhinorrhoea TEAE, % ([2]; 100 mg (N = 66)): (7.6%)
- Sinusitis TEAE, % ([2]; 100 mg (N = 66)): (10.6%)
- Skin and subcutaneous tissue disorders TEAE, % ([2]; 100 mg (N = 66)): (24.2%)
- Sputum increased TEAE, % ([2]; 100 mg (N = 66)): (10.6%)
